# Results reported in patent publication US20040191297A1, “Carotenoid formulation” (priority 1997, published 2004).
# Legend:
# [1] = Preliminary feeding study, one male rat, 3 weeks; type: in vivo; settings: 2.5 mM/kg diet
# Procedure: One male rat was fed 2.5 mM lycopene (+other carotenoids)/kg diet for a period of 3 weeks. At this high dose, no change in body weight or food consumption was seen. […] The tail was brown. At necropsy, the liver was a deep red, as was the cecum and small intestine.
# [2] = Lycopene content of rat serum; type: in vivo, Fischer 344 rats
# Procedure: Prior to termination, 3 animals from each group were placed in metabolic cages and 24-hour urine and fecal collections made for subsequent lycopene assay. Blood was collected by heart puncture under anesthesia for lycopene assay and all animals were sacrificed by CO2 anesthesia. Blood and feces were stored at −20° C. At necropsy, all major organ systems were grossly inspected. Any unusual appearing tissues were placed in formalin and saved for later histological examination.
# Extraction of lycopene from serum was conducted by adding 1 ml of serum to 0.1 ml echinenone standard in ethanol and 0.9 ml ethanol. The mixture was then vortexed for 20 seconds, and 2.0 ml hexane added and mixed vigorously for 1 minute. The cloudy mixture was then centrifuged at 3,000 rpm for 15 minutes at 4° C. and the clear hexane layer was decanted. The above procedure was repeated 3-5×. The pooled hexane fraction was then dried under N2 gas at 60° C., and the residue dissolved in 0.5 ml HPLC solvent and analyzed by HPLC.
# retinol = test: Liver vitamin A assay; type: in vivo, Fischer 344 rats; settings: for Liver retinol: female
# From the text: The effect of the tomato carotenoid supplement on the absorption and storage of two important fat soluble vitamins, namely, retinol and α-tocopherol, was investigated. Using established HPLC methods, a strong liner dose-response relationship was found between the lycopene content of the liver and both retinol and a-tocopherol concentration in female R-344 rats (Table 23).
# [3] = female, Group 1 (1280 mg/kg diet)
# [4] = female, Group 2 (512 mg/kg diet)
# [5] = female, Group 3 (256 mg/kg diet)
# [6] = female, Group 5 (51 mg/kg diet)
# [7] = male, Group 1 (1280 mg/kg diet)
structure (smiles),measurement,setting,value
CC(C)=CCC/C(C)=C/C=C/C(C)=C/C=C/C(C)=C/C=C/C=C(C)/C=C/C=C(C)/C=C/C=C(\C)CCC=C(C)C [Lycopene],change in body weight or food consumption,[1],no change
same,concentration at 10 weeks,"[2]; both sexes, Fischer 344, rat, serum, oral, all supplemented groups, males and females, read-out: Serum lycopene levels, overall low to high",80 to 370 ng/mL
same,"Lycopene content of serum, Median",[2]; [3],205 ng/mL
same,"Lycopene content of serum, Range",[2]; [3],123 to 232 ng/mL
same,"Lycopene content of serum, mean ± SD",[2]; [3],187 ± 043 ng/mL
same,"Lycopene content of serum, Median",[2]; [4],180 ng/mL
same,"Lycopene content of serum, Range",[2]; [4],109 to 211 ng/mL
same,"Lycopene content of serum, mean ± SD",[2]; [4],169 ± 042 ng/mL
same,"Lycopene content of serum, Median",[2]; [5],210 ng/mL
same,"Lycopene content of serum, Range",[2]; [5],174 to 366 ng/mL
same,"Lycopene content of serum, mean ± SD",[2]; [5],245 ± 083 ng/mL
same,"Lycopene content of serum, Median",[2]; [6],152 ng/mL
same,"Lycopene content of serum, Range",[2]; [6],081 to 207 ng/mL
same,"Lycopene content of serum, mean ± SD",[2]; [6],145 ± 053 ng/mL
same,"Lycopene content of serum, Median",[2]; [7],160 ng/mL
same,"Lycopene content of serum, Range",[2]; [7],134 to 230 ng/mL
same,"Lycopene content of serum, mean ± SD",[2]; [7],168 ± 036 ng/mL
same,"Lycopene content of serum, Median","[2]; male, Group 2 (512 mg/kg diet)",225 ng/mL
same,"Lycopene content of serum, Range","[2]; male, Group 2 (512 mg/kg diet)",148 to 326 ng/mL
same,"Lycopene content of serum, mean ± SD","[2]; male, Group 2 (512 mg/kg diet)",227 ± 068 ng/mL
same,"Lycopene content of serum, Median","[2]; male, Group 3 (256 mg/kg diet)",285 ng/mL
same,"Lycopene content of serum, Range","[2]; male, Group 3 (256 mg/kg diet)",174 to 372 ng/mL
same,"Lycopene content of serum, mean ± SD","[2]; male, Group 3 (256 mg/kg diet)",278 ± 066 ng/mL
same,"Lycopene content of serum, Median","[2]; male, Group 4 (128 mg/kg diet)",215 ng/mL
same,"Lycopene content of serum, Range","[2]; male, Group 4 (128 mg/kg diet)",153 to 328 ng/mL
same,"Lycopene content of serum, mean ± SD","[2]; male, Group 4 (128 mg/kg diet)",231 ± 064 ng/mL
same,"Lycopene content of serum, Median","[2]; male, Group 5 (51 mg/kg diet)",177 ng/mL
same,"Lycopene content of serum, Range","[2]; male, Group 5 (51 mg/kg diet)",100 to 238 ng/mL
same,"Lycopene content of serum, mean ± SD","[2]; male, Group 5 (51 mg/kg diet)",171 ± 049 ng/mL
same,difference in liver retinol between controls and the highest lycopene dose,retinol; female rats,10 fold
same,Liver retinol,"retinol; Group 1, lycopene 1280 mg/kg diet",1302 μg/gm
same,Liver retinol,"retinol; Group 2, lycopene 512 mg/kg diet",768 μg/gm
same,Liver retinol,"retinol; Group 3, lycopene 256 mg/kg diet",858 μg/gm
same,Liver retinol,"retinol; Group 4, lycopene 128 mg/kg diet",888 μg/gm
same,Liver retinol,"retinol; Group 5, lycopene 51 mg/kg diet",555 μg/gm
